According to ChEMBL document CHEMBL5036350, “Binding site comparison for coumarin inhibitors and amine/amino acid activators of human carbonic anhydrases” (Eur J Med Chem, 2021):

How the values were obtained:
Conditions in all cases: filed as activator
[1] = target: Carbonic anhydrase 5A, mitochondrial (Homo sapiens) (UniProt P35218); test: Activation of human carbonic anhydrase 5A by stopped flow assay
[2] = target: Carbonic anhydrase 14 (Homo sapiens) (UniProt Q9ULX7); test: Activation of human carbonic anhydrase 14 by stopped flow CO2 hydrase assay
Chain of Carbonic anhydrase 14 (Homo sapiens) (Q9ULX7 whole entry): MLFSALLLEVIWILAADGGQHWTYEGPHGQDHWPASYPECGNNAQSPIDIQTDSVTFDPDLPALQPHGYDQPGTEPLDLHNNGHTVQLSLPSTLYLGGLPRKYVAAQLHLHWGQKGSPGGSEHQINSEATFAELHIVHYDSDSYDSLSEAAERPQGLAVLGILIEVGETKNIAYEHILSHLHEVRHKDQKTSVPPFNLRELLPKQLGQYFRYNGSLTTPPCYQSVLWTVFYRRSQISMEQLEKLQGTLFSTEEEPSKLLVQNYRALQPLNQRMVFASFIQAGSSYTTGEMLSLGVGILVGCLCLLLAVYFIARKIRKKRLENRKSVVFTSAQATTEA

[3] = target: Carbonic anhydrase 7 (Homo sapiens) (UniProt P43166); test: Activation of human carbonic anhydrase 7 by stopped flow assay
Chain of Carbonic anhydrase 7 (Homo sapiens) (P43166 whole entry): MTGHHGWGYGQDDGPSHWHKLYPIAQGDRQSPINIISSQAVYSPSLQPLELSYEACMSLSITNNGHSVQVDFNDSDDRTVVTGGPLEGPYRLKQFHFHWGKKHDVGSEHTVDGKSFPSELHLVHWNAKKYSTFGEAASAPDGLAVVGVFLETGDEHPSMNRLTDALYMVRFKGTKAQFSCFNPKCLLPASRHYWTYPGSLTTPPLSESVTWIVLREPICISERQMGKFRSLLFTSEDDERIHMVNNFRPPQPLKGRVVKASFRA

[4] = target: Carbonic anhydrase 4 (Homo sapiens) (UniProt P22748); test: Activation of human carbonic anhydrase 4 by stopped flow assay
Chain of Carbonic anhydrase 4 (Homo sapiens) (P22748 whole entry): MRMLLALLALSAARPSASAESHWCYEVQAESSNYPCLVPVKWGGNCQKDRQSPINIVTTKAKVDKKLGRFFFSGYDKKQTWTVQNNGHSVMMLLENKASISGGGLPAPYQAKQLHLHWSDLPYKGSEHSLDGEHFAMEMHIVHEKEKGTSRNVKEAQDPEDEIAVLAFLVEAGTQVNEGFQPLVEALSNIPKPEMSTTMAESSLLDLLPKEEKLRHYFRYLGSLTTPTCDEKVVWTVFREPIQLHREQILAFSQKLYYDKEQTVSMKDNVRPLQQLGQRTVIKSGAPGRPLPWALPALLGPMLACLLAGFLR

[5] = target: Carbonic anhydrase 2 (Homo sapiens) (UniProt P00918); test: Activation of human carbonic anhydrase 2 by stopped flow assay
[6] = target: Carbonic anhydrase 13 (Homo sapiens) (UniProt Q8N1Q1); test: Activation of human carbonic anhydrase 13 by stopped flow assay
Chain of Carbonic anhydrase 13 (Homo sapiens) (Q8N1Q1 whole entry, looked up): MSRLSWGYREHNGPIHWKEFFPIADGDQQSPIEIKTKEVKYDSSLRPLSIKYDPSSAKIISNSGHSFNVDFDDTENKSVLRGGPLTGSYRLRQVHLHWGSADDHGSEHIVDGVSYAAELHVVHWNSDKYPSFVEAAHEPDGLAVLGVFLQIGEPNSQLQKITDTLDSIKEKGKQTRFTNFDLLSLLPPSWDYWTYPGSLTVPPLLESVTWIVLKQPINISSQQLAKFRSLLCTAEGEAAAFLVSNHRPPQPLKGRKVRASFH

Chain of Carbonic anhydrase 5A, mitochondrial (Homo sapiens) (P35218 whole entry): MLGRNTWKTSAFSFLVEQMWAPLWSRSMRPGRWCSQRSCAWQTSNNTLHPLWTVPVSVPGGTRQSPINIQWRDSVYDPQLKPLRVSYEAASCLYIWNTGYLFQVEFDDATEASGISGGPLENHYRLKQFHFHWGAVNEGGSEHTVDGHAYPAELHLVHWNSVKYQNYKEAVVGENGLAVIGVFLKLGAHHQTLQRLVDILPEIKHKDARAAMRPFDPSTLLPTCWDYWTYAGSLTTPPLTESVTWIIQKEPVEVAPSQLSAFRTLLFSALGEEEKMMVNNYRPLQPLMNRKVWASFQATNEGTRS

For CNC[C@H](O)c1ccc(O)c(O)c1, which KA [1] is on record?
The KA was 63 µM.

And the KA [2]?
Its KA is 36 µM.

And the KA [3]?
The KA was 60 µM.

And the KA [4]?
Its KA is 45 µM.

Which results are given for NCCc1c[nH]cn1?
KA [5]: 12.5 µM; KA [6]: 4.6 µM

Which KA [6] does the source give for N[C@H](Cc1c[nH]c2ccccc12)C(=O)O here?
Its KA is 0.81 µM.

For N[C@@H](Cc1c[nH]cn1)C(=O)O, which KA [6] is on record?
The KA was 0.13 µM.

N[C@H](Cc1c[nH]cn1)C(=O)O was tested. Which KA [6] did it give?
Its KA is 0.09 µM.
